Here are results for two compounds from publication PMC12010006, “Subnanomolar MAS-related G protein-coupled receptor-X2/B2 antagonists with efficacy in human mast cells and disease models” (Signal Transduction and Targeted Therapy, 2025).

In one test the target is T1, MRGPRX4 (Homo sapiens, UniProt Q96LA9).
T1 construct: host or cells: CHO-K1 beta-arrestin-2 (EA) cells
Description: β-arrestin assay, CHO cells expressing MRGPRX4 (subtype selectivity). The test is classed as cell-based. The conditions noted are these: 10 µM, versus PSB-18061 (2.6 µM). As to the method:
(§1) Fig. 1 Characterization of MRGPRX2 inhibitor 1. a Chemical structure and molecular weight (MW) of 1. b Concentration-response curve of 1 determined in β-arrestin recruitment assays. CHO cells that recombinantly express MRGPRX2 were employed versus the agonist CST-14 (at its EC80 value of 1.0 µM). […] Data are means ± SEM of 3 biological replicates, performed in duplicates. c MRGPRX subtype selectivity of 1 (10 µM) determined in β-arrestin assays using CHO cells that recombinantly express the respective MRGPRX subtype. MRGPRX1 was activated by BAM-22P (8.5 µM),[19] MRGPRX2 was activated by CST-14 (1 µM), MRGPRX3 was activated by PSB-20294 (1 µM), and MRGPRX4 by PSB-18061 (2.6 µM).[44] […] The effect of each MRGPRX agonist was assessed in the absence and in the presence of 1; results were normalized to the maximal agonist effect. […] Statistical significance was determined by one-way ANOVA (Tukey’s multiple comparisons) test (ns P > 0.05 and ****P < 0.0001) TEXT PRINTED IN THE PICTURE: (a) 1 Hit compound: MW: 241.29 g/mol
(§2) Fig. 3 Biological characterization of PSB-172656. a Selectivity of PSB-172656 (100 nM) for MRGPRX2 over MRGPRX1, MRGPRX3, and MRGPRX4 measured in β-arrestin assays utilizing β-arrestin-CHO cells with recombinant expression of the respective receptor. […] Statistical significance was determined by one-way ANOVA (Tukey’s multiple comparison) test (ns P > 0.05). […]

The target in another test is T2, MRGPRX1 (Homo sapiens, UniProt Q96LB2).
T2 construct: host or cells: CHO-K1 beta-arrestin-2 (EA) cells
T2 sequence (Q96LB2 whole entry): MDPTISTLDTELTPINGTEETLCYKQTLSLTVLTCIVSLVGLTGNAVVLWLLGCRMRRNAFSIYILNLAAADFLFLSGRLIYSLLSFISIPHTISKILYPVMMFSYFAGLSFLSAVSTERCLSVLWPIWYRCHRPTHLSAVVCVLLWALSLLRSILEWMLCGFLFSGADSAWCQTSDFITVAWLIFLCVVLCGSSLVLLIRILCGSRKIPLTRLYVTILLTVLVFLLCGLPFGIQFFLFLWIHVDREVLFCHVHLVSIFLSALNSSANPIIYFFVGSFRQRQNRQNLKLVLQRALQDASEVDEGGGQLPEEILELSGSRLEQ
Description: β-arrestin assay, CHO cells expressing MRGPRX1 (subtype selectivity). The format is cell-based. To be noted: 10 µM, versus BAM-22P (8.5 µM). The protocol:
as §1, §2

T1 sequence (Q96LA9 whole entry): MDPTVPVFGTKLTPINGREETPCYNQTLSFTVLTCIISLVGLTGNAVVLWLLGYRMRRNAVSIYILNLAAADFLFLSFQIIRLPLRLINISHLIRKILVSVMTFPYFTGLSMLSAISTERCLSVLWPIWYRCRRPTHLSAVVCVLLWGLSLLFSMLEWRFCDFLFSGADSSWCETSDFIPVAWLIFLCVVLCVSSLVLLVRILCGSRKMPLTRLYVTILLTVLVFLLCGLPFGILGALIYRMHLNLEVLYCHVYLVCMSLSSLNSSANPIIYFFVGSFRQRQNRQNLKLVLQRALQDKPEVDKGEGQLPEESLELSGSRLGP

With `CCCc1c(C)[nH]c2nc3ccccc3n2c1=O` [Compound 1, 2-methyl-3-propylbenzo[4,5]imidazo[1,2-a]pyrimidin-4(1H)-one], on MRGPRX4, the “inhibition of MRGPRX4 activation” value is “no inhibition”. For the same compound, at MRGPRX1, the “inhibition of MRGPRX1 activation” value is recorded as “no inhibition”.
Turning to `CCc1c(C(C)C)[nH]c2nc3cc(F)c(F)cc3n2c1=O` [Compound 24, 3-ethyl-7,8-difluoro-2-isopropylbenzo[4,5]imidazo [1,2-a] pyrimidin-4(1H)-one], the “inhibition of MRGPRX4 activation” value against MRGPRX4 was “not able to block”. For the same compound, the “inhibition of MRGPRX1 activation” value at MRGPRX1 is reported as “not able to block”.
